Measured values reported in patent US6461863B1, “Modifying insect cell gylcosylation pathways with baculovirus expression vectors” (University of Wyoming, priority 1996, dated 2002).

Assays:
Sf9 α1,2-mannosidase = biological target: T1, Sf9 α1,2-mannosidase (Spodoptera frugiperda, UniProt O18498); test: α1,2-mannosidase activity assay, release of [3H]mannose from [3H]Man9GlcNAc by lysates of recombinant baculovirus-infected Sf9 cells; assay type: biochemical; details: cell lysates at 48 hours postinfection (FIG. 15B); for α-mannosidase activity in recombinant baculovirus-infected cells, inhibition by dMNJ: 500 μM dMNJ
T1 construct: This screening procedure identified a full-length α1,2-mannosidase cDNA clone which contains an ORF; made in house; host or cells: Sf9 cells infected with recombinant baculovirus (pVL1393 transfer plasmid, polyhedrin promoter, BacPAK6 DNA); Triton X-100 cell lysate, not purified
T1 sequence (O18498 1-670): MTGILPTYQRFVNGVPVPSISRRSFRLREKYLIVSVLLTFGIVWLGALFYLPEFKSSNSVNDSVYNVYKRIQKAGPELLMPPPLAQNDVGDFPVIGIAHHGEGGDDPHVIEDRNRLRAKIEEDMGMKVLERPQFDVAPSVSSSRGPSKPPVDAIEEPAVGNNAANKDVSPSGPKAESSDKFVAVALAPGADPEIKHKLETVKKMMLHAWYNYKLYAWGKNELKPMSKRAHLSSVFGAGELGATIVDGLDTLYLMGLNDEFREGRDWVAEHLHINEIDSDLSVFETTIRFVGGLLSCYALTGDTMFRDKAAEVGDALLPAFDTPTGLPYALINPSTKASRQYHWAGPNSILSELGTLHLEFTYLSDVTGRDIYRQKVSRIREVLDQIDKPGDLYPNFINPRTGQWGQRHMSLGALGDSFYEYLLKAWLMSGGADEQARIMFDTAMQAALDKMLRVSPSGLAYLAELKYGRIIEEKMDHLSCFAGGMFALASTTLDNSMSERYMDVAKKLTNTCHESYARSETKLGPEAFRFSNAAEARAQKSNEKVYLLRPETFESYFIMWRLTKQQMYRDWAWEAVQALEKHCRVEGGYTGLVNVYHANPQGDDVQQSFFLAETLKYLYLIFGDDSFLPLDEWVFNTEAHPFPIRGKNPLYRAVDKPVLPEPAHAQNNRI
Method: Sf9 cell lysates were used for α1,2-mannosidase activity assays with [3H]Man9GlcNAc as described previously (Herscovics and Jelinek-Kelly, 1987) with some modifications. The cells were seeded into 25 cm tissue culture flasks (Corning Glass Works, Corning, N.Y.) at a density of 3 million cells per flask and infected at a multiplicity of infection of 10 plaque forming units per cell with either a recombinant baculovirus encoding the Sf9 α1,2-mannosidase cDNA under the control of the polyhedrin promoter, or wild type baculovirus as a control. The cells were harvested by centrifugation at selected times after infection, washed with 100 mM Na^+MES (pH 6.0), and lysed using 1 ml per 30,000 cells of the same buffer containing 0.5% Triton X-100 with or without 80 mM EDTA.
[…] of the lysates were used in each reaction of the α1,2-mannosidase activity assays. Cell lysates for negative control reactions were boiled for 3 min prior to being added to the reactions. All reactions were carried out in a total volume of […] containing 75 mM Na^+MES (pH 6.0), 0.0625% Triton X-100, and 6000 cpm of [^3H]MangGlcNAc. In addition, some reactions contained CaCl2, MgCl2, EDTA, or dMNJ. The reactions were incubated at 37° C. for 2.5 hours, boiled for 2 min, and 250 ml of a 5 mM solution of CaCl2, MgCl2, and MnCl2, and 175 ml of a 2.25 mg/ml solution of concanavalin A (Boehringer-Mannheim, Indianapolis, Ind.) in 3.8 M NaCl were added to each reaction. The solutions were vortexed gently and incubated at room temperature for two minutes, then 1 ml of 25% PEG-8000 was added and the solutions were vortexed and incubated for another 5 min at room temperature. The solutions were then centrifuged for 2 min at 10,000×g, 1 ml of the supernatant was added to 4 ml of a scintillation cocktail (Ultima Gold™; Packard Instrument Company, Meriden, Conn.), and radioactivity was measured using a Beckman liquid scintillation counter (Model LS 60001C; Beckman Instruments, Inc., Fullerton, Calif.).

N-linked glycans on gp64 = details: baculovirus-infected lepidopteran cells (Jarvis and Garcia, 1994); cited from earlier work
Sf9 α-mannosidase II = biological target: T2, Sf9 α-mannosidase II (Spodoptera frugiperda, UniProt O18497); test: α-mannosidase activity assay with p-nitrophenyl α-D-mannopyranoside on extracts of recombinant baculovirus-infected Sf9 cells; assay type: biochemical; details: various concentrations of swainsonine; extracts 24, 36, 48 h postinfection (FIG. 7B)
T2 construct: The assembled full-length open reading frame of the Sf9 α-mannosidase II cDNA; made in house; host or cells: Sf9 cells infected with recombinant baculovirus (pVL1392 transfer vector, polyhedrin promoter); Triton X-100 cell extract, not purified
T2 sequence (O18497 1-1130): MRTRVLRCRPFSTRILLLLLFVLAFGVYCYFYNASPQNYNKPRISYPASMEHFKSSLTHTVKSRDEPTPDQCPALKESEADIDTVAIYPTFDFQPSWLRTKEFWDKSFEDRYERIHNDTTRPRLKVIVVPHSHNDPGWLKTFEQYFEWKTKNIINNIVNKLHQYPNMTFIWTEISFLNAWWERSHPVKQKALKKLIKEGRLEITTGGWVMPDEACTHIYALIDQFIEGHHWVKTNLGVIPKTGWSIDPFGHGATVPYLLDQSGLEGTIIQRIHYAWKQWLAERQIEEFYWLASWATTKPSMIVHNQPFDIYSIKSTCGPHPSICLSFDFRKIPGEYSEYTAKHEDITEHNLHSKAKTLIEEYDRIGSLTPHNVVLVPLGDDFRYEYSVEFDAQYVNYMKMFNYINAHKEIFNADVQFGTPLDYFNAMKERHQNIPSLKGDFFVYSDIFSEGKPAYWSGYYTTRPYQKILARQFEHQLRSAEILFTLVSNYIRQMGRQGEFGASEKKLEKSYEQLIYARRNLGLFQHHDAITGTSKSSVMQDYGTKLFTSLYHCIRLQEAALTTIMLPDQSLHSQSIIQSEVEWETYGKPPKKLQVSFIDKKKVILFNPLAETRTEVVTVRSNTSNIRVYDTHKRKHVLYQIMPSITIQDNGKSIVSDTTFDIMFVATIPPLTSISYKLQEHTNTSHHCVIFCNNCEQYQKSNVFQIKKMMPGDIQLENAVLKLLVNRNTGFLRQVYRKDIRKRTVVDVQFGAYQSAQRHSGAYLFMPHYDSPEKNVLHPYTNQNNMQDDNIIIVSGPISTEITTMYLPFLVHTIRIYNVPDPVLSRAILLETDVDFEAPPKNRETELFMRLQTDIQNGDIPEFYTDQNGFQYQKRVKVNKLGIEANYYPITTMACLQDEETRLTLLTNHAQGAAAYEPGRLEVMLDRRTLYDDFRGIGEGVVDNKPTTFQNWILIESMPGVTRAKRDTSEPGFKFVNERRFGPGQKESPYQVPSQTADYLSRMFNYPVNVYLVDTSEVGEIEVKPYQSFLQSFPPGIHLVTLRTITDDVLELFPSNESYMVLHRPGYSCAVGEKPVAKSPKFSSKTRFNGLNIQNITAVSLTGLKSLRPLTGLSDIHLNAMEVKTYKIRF
Method: Sf9 cells were infected with wild-type or recombinant baculoviruses were harvested by centrifugation at various times after infection, and pellets containing 1×10^6 cells were resuspended in 100 μl of assay buffer (0.1 M MES, pH 6.3; 0.5% Triton-X-100). The cell suspensions were assayed for o-mannosidase activity by mixing 25 μl of the cell extracts with 25 μl of 10 mM p-nitrophenyl α-D-mannopyranoside in the presence or absence of various concentrations of swainsonine. The reaction mixtures were incubated in a microtiter plate for 1 hr at 37° C. with gentle agitation, then quenched by the addition of 200 μl of stop solution (133 mM glycine, 67 mM NaCl, 83 mM Na2CO3). Absorbance was measured at 410 nm on a plate reader (Dynatech Model MR 5000), corrected for light scattering at 570 nm, and the corrected absorbance values were converted to nmol p-nitrophenol using a standard curve produced on the same plate reader.

O=C(O)CN(CCN(CC(=O)O)CC(=O)O)CC(=O)O [EDTA]
α-mannosidase activity in recombinant baculovirus-infected cells, inhibition by EDTA (Sf9 α1,2-mannosidase; 10 mM EDTA, reversed by calcium, not magnesium): strongly inhibited

OC[C@H]1NC[C@@H](O)[C@@H](O)[C@@H]1O [dMNJ, 1-deoxymannojirimycin]
α-mannosidase activity in recombinant baculovirus-infected cells, inhibition by dMNJ (Sf9 α1,2-mannosidase): strongly inhibited | α-mannosidase activity in recombinant baculovirus-infected cells, inhibition by dMNJ (Sf9 α1,2-mannosidase; listed as 1-deoxymannojirimycin): inhibited | processing of N-linked glycans on gp64 (N-linked glycans on gp64): block the processing

O[C@H]1[C@H]2[C@H](O)CCCN2C[C@H]1O [swainsonine]
α-mannosidase activity in recombinant baculovirus-infected cell extracts in the presence of swainsonine (Sf9 α-mannosidase II): sensitive
